Source: patent publication US10688193B2, “PH-sensitive linkers for delivering a therapeutic agent” (GNT BIOTECH & MEDICALS CORPORATION, priority 2015, dated 2020)

Tests used:
[1] = Cytotoxicity assay of Au/LKs/Dox complexes (MTS, 72 hours); assay type: cell-based; settings: human, H184B5F5/M10 mammary epithelial cells; M10, 72 hrs; read-out: IC50 value for complex cytotoxicity
Method: (§1) We examined the cytotoxicity of Au/LKs/Dox complexes and the IC50 value was calculated. […] The CellTiter 96® AQueous One Solution Cell Proliferation Assay (MTS) reagent was purchased from Promega (Madison, Wis., USA) and the assay was performed according to the manufacturer's instructions. Absorbance was measured at 490 nm using a microplate reader (Bio-tek, Powerwave X340, Winooski, Vt., USA).

MDA-MB-453 = experiment: as above; assay type: cell-based; settings: Homo sapiens; MDA-MB-453, 72 hrs; read-out: IC50 value for complex cytotoxicity
Method: as §1

MDA-MB-231 breast tumors = experiment: MDA-MB-231 breast tumor xenograft efficacy study; assay type: in vivo, BALB/c-nu/nu mice
From the text: FIG. 6 (A) to (D) show the treatment of MDA-MB-231 breast tumors. (A) Net animal weight change (g) during the treatment. From the data, doxorubicin and Au/LKI-1/Dox was cause the weight loss over 20% and 3% in nude mice (N=3), respectively. […] (B) The inhibition of MDA-MD-231 breast tumor growth (N=3): Dox>Au/LKI-1/Dox>Au/PEG=PBS. (C) TEM images of MDA-MB-231 breast tumor cells treated with Au/LKI-1/Dox complex was easy determined the Au/LKI-1/Dox complex in the tumor in xenograft model. (D) Immunohistochemistry of tumor specimens. Breast tumor specimens were taken from the mice, embedded in paraffin and stained with hematoxylineosin.
BALB/c-nu/nu mice were purchased from BioLASCO Taiwan. Eight week old male mice were injected unilaterally with 1.0×10^7 MDA-MB-231 breast tumor cells in 200 μL of 50:50 Matrigel/Leibovitz's (L-15) into the dorsum by subcutaneous injection. (1) Vehicle-PBS (negative control), (2) Doxorubicin (positive control), 5 mg/kg, (3) Au/PEG, (4) Au/LKI-1/Dox complex, 5 mg/kg of Dox. Treatment was ongoing until clinical symptoms necessitated sacrifice. Mice were weighed a minimum of two times/weekly and were monitored tumor size until clinical symptoms necessitated sacrifice (see FIG. 6A, 6B). TEM images of MDA-MB-231 breast tumor cells treated with Au/LKI-1/Dox complex in xenograft model. […] (see FIG. 6C) H&E stain of MDA-MB-231 tumor cells treated with Au/LKI-1/Dox complex in xenograft model. (see FIG. 6D)

in vitro [2] = settings: human, H184B5F5/M10 mammary epithelial cells
From the text: (§2) After took photos, cells were counted by using hemocytometer.

in vitro [3] = settings: human, MDA-MB-453 breast adenocarcinoma cells
From the text: as §2

in vitro [4] = settings: human, MDA-MB-231 breast adenocarcinoma cells
From the text: as §2

in vitro [5] = settings: human, MCF7 breast adenocarcinoma cells
From the text: as §2

TNFα = TNFα (Homo sapiens, UniProt P01375); experiment: Blocking of TNFα-induced MCF-7 cell apoptosis (MTS); assay type: cell-based; settings: for Relative cell survival %: TNFα 12.5 ng/mL, MCF-7, 72 hours
Method: We further examined Au/LKI-1/ETA complex by binding with secondary antibody conjugated with 1-5 nm AuNPs. In TEM images of Au/LKI-1/ETA complex, binding of 1-5 nm gold-labeled secondary anti-human IgG antibodies to ETA located on the AuNP surface was observed (FIG. 4C). We further investigated the TNFα blocking ability of ETA and Au/LKI-1/ETA. MCF-7 cells (5×10^5) were treated with the mixtures of 12.5 ng/mL TNFα and 62.5, 125, 250, 500 ng/mL ETA or Au/LKI-1/ETA complex for 2 hours, respectively. The treated cells were incubated at 37° C. for 72 hours and then the cell numbers were counted by MTS [(3-(4,5-dimethylthiazol-2-yl)-5-(3-carboxymethoxyphenyl)-2-(4-sulfophenyl)-2H-tetrazolium)] assay. […] ETA and Au/LKI-1/ETA complex were used to test their abilities in blocking TNFα induced MCF-7 cell apoptosis, Table 4.

TNFα, sequence (P01375 77-233 limits assumed, species assumed): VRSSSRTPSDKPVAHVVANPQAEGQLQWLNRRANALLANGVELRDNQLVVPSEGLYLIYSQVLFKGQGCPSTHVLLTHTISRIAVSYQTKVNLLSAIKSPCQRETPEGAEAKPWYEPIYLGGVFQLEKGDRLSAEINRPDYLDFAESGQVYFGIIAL

IC50 at 72 h (in vitro [2]) | IC50 at 72 h (in vitro [3]) | IC50 at 72 h (in vitro [4]) | IC50 at 72 h (in vitro [5]) | Compound | further results
 |  |  |  | COc1cccc2c1C(=O)c1c(O)c3c(c(O)c1C2=O)C[C@@](O)(C(=O)CO)C[C@@H]3O[C@H]1C[C@H](N)[C@H](O)[C@H](C)O1 [Dox, doxorubicin] | IC50 at 72 h [1]: 0.14 ± 0.034 µM; IC50 (MDA-MB-453): 0.65 ± 0.072 µM; inhibition of MDA-MB-231 breast tumor growth (rank order) (MDA-MB-231 breast tumors; N=3, 5 mg/kg of Dox): Dox>Au/LKI-1/Dox>Au/PEG=PBS; weight loss during the treatment (MDA-MB-231 breast tumors; nude mice (N=3), 5 mg/kg of Dox): over 20%; necrosis in tumor specimens (hematoxylin-eosin) (MDA-MB-231 breast tumors; xenograft tumors): more necrosis
584 ± 62.7 µM | 299 ± 23 µM | 529 ± 52.1 µM | 692 ± 51.9 µM | NNC(=O)OCCOCCNC(=O)CCCCC1CCSS1 (centres unmarked) [Linker I-1] | 
686 ± 105 µM | 432 ± 96.6 µM | 536 ± 21.6 µM | 730 ± 36.7 µM | NNC(=O)OCCNC(=O)CCCCC1CCSS1 (centres unmarked) [Linker I-2] | 
555 ± 33.5 µM | 333 ± 9.8 µM | 454 ± 142 µM | 538 ± 39.6 µM | NNC(=O)OCCOCCOCCNC(=O)CCCCC1CCSS1 (centres unmarked) [Linker I-3] | 
560 ± 45.1 µM | 342 ± 11 µM | 576 ± 81.9 µM | 569 ± 14.1 µM | NNC(=O)OCCOCCOCCOCCNC(=O)CCCCC1CCSS1 (centres unmarked) [Linker I-4] | 
569 ± 54.7 µM | 460 ± 87.9 µM | 484 ± 64.6 µM | 419 ± 23.8 µM | NNC(=O)OCCOCCOCCOCCOCCOCCNC(=O)CCCCC1CCSS1 (centres unmarked) [Linker I-5] | 
500 µM | > 800 µM | 474 µM | 501 µM | NNC(=O)OCCNC(=O)CNC(=O)CCCCC1CCSS1 (centres unmarked) [Linker II-1] | 
> 800 µM | > 800 µM | > 800 µM | > 800 µM | NNC(=O)OCCNC(=O)CNC(=O)CNC(=O)CCCCC1CCSS1 (centres unmarked) [Linker II-2] | 
> 800 µM | 128 ± 15.1 µM | 559 ± 23.3 µM | > 800 µM | NNC(=O)OCCOCCNC(=O)CCCCCS [Linker SHI-1] | 
> 800 µM | 130 ± 13.4 µM | 533 ± 63.9 µM | > 800 µM | NNC(=O)OCCOCCOCCOCCNC(=O)CCCCCS [Linker SHI-4] | 
 |  |  |  | Etanercept | TNFα blocking ability (TNFα; MCF-7 cells): TNFα blocking ability was observed; Relative cell survival % (TNFα; dose 62.5 ng/mL): 36.7 ± 1.4%; Relative cell survival % (TNFα; dose 125 ng/mL): 68.5 ± 2.3%; Relative cell survival % (TNFα; dose 250 ng/mL): 82.1 ± 6.5%; Relative cell survival % (TNFα; dose 500 ng/mL): 103.3 ± 0.9%

Compound | IC50 at 72 h (in vitro [2]) | IC50 at 72 h (in vitro [3]) | IC50 at 72 h (in vitro [4]) | IC50 at 72 h (in vitro [5]) | further results
NNC(=O)OCCNC(=O)CNC(=O)CNC(=O)CNC(=O)CCCCC1CCSS1 (centres unmarked) [Linker II-3] | 585 ± 132 µM | > 800 µM | 428 ± 116 µM | > 800 µM | 
